Literature values, collected in patent EP4602929A1, “ORAL PRODUCT WITH POWDER COATING” (Nicoventures Trading Limited, priority 2024, dated 2025).

solubility in water	Structure (SMILES)
insoluble in water	COC(=O)/C=C/C(C)=C\C=C\C(C)=C\C=C\C=C(C)\C=C\C=C(C)\C=C\C(=O)O [bixin, (2E,4E,6E,8E,10E,12E,14E,16Z,18E)-20-methoxy-4,8,13,17-tetramethyl-20-oxoicosa-2,4,6,8,10,12,14,16,18-nonaenoic acid]
water soluble	CC(/C=C/C=C(C)/C=C/C(=O)O)=C\C=C\C=C(C)\C=C\C=C(C)\C=C\C(=O)O (stereo in doubt) [norbixin, (2E,4E,6E,8E,10E,12E,14E,16E,18E)-4,8,13,17-tetramethylicosa-2,4,6,8,10,12,14,16,18-nonaenedioic acid]
